Measurements: patent publication US20250304596A1, “PYRAZINE DERIVATIVES AND USES THEREOF” (FOGHORN THERAPEUTICS INC., priority 2022, published 2025)

How the values were obtained:
HiBit-BRM fusion protein = target: T1, HiBit-BRM fusion protein (Homo sapiens, UniProt P51531); assay: HiBiT-BRM cell-based degradation assay (Nano-Glo HiBiT Lytic Detection, 24 h); conditions: stable HeLa cell line expressing HiBiT-BRM; for DC50: read-out: BRM HiBit Degradation IC50
T1 construct: expressed in transfected cells
Description: (§1) Procedure: A stable HeLa cell line expressing HiBiT-BRM was generated. On day 0, 5000 cells were seeded in 40 μL of media into each well of 384-well cell culture plates. On day 1, cells were treated with 120 nL DMSO or 120 nL of 3-fold serially DMSO-diluted compounds (10 points in duplicate with 30 μM as final top dose). Subsequently plates were incubated for 24 h in a standard tissue culture incubator and equilibrated at room temperature for 15 minutes. Nano-Glo HiBiT Lytic Detection System (Promega N3050) reagent was freshly prepared and 20 ul was added to each well. Upon addition of this LgBit-containing reagent, the HiBiT and LgBiT proteins associate to form the luminescent NanoBiT Iuciferase. The plates were shaken for 10 minutes at room temperature and the bioluminescence read using an EnVision plate reader (PerkinElmer).
(§2) The degradation % was calculated using the following formula: % degradation=100%-100%×(LumSample−LumLC)/(LumHC−LumLC). DMSO treated cells are employed as High Control (HC) and 2 μM of a known BRM/BRG1 degrader standard treated cells are employed as Low Control (LC).

[1] = target: T2, HiBit-BRG1 fusion protein (Homo sapiens, UniProt P51532); assay: HiBiT-BRG1 cell-based degradation assay (Nano-Glo HiBiT Lytic Detection, 24 h); conditions: stable HeLa cell line expressing HiBit-BRG1 and LgBit; for Dmax: read-out: BRG1 HiBit Degradation Maximum (%); for DC50: read-out: BRMG1 HiBit Degradation IC50
T2 construct: expressed in transfected cells
Description: as §1
For measurement of BRG1 degradation, a stable HeLa cell line expressing HiBit-BRG1 and LgBit was generated. The same protocol as above was then followed.
as §2

T1 sequence (P51531 whole entry, the tested form may be a part): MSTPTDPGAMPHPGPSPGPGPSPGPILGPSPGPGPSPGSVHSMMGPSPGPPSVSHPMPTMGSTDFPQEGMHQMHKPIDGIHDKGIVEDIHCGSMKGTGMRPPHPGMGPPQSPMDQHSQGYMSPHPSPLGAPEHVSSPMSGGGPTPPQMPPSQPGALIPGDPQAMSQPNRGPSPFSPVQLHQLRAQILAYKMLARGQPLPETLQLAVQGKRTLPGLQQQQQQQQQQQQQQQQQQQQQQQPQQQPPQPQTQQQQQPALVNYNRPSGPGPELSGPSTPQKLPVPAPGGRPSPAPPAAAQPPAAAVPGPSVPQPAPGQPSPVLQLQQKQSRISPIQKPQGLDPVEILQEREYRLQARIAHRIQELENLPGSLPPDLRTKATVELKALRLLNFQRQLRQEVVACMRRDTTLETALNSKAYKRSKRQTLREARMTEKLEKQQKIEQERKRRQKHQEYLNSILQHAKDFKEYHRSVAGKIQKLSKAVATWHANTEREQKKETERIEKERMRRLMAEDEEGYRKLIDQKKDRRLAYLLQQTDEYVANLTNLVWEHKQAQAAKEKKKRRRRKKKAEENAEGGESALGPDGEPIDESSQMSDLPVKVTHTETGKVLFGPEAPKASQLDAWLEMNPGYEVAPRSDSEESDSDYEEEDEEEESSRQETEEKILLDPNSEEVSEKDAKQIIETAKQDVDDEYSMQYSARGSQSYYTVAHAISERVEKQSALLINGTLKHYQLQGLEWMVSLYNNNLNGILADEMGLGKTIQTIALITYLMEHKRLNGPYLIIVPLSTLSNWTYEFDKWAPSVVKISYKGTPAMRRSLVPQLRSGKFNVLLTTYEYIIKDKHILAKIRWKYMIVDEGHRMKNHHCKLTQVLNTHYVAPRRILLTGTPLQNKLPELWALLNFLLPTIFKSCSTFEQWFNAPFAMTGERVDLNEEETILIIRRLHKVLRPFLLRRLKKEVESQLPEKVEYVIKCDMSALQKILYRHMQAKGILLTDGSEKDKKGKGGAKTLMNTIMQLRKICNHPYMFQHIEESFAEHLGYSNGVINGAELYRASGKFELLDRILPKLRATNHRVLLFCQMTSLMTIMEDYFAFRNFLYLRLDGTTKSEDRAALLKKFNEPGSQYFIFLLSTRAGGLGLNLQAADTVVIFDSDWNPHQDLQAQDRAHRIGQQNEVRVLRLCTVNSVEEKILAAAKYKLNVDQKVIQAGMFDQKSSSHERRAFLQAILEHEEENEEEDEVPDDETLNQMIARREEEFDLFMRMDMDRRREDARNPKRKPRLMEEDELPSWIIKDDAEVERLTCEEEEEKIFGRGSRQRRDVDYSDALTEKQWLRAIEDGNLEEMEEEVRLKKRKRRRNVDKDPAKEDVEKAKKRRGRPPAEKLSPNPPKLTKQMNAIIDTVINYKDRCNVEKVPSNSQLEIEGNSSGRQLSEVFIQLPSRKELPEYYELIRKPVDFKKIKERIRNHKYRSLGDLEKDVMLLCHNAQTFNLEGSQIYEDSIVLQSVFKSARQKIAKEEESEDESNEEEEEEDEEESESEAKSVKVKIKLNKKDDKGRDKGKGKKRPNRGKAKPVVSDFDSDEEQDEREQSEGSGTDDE
T2 sequence (P51532 whole entry, the tested form may be a part): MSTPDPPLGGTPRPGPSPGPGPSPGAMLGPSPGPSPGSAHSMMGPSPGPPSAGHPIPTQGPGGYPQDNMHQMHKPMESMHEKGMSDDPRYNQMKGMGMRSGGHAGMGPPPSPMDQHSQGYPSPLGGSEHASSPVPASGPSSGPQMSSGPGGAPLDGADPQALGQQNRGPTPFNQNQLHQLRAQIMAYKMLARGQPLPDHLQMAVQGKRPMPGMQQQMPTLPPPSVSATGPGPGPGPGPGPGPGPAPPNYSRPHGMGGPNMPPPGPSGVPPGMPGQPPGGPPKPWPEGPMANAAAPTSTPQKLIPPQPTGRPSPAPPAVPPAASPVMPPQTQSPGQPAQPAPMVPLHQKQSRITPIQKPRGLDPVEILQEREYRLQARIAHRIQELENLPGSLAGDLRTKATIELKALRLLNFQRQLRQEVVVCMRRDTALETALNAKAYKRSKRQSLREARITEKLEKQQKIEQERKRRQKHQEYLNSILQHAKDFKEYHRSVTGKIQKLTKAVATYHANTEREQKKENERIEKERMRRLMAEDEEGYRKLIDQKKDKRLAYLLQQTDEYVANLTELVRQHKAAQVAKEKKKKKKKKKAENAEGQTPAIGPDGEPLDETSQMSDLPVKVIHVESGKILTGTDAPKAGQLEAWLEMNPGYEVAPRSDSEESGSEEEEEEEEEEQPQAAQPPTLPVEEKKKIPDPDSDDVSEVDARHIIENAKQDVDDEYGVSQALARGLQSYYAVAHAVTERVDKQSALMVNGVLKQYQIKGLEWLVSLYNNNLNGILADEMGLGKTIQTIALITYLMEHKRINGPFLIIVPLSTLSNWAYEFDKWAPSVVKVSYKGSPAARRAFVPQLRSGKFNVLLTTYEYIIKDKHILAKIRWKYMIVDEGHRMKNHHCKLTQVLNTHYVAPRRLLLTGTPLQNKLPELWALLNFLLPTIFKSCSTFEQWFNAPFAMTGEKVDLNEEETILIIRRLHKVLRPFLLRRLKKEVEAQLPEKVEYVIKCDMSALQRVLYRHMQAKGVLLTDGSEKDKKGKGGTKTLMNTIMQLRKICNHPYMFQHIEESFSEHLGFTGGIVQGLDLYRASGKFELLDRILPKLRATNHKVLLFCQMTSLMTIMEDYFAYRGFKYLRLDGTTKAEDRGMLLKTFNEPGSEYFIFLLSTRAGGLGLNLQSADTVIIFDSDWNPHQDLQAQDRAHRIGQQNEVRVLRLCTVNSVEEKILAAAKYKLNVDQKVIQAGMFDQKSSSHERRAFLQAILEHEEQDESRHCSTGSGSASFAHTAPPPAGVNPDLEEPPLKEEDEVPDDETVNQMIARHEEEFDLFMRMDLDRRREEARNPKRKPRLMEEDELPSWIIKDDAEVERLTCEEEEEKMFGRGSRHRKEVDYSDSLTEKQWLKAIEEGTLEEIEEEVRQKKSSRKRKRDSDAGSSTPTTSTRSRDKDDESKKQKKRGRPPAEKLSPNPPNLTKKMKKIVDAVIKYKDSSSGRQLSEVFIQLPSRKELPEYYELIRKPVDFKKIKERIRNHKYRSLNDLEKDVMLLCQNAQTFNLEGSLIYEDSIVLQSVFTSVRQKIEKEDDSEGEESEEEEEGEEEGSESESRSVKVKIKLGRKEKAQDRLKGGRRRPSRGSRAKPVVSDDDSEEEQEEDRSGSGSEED

DC50 (HiBit-BRM fusion protein) [nM]	Dmax [1] [%]	DC50 [1] [nM]	Compound	BRM HiBit Degradation Maximum (%) (HiBit-BRM fusion protein)
> 100	< 50		Cc1ncsc1-c1ccc([C@H](C)NC(=O)[C@@H]2C[C@@H](O)CN2C(=O)[C@@H](c2cc(-c3ccnc(N4CC[C@H](c5cc6nnc(-c7ccccc7O)cc6s5)C4)n3)no2)C(C)C)cc1 [Compound 86, (2S,4R)-4-hydroxy-1-((R)-2-(3-(2-((S)-3-(3-(2-hydroxyphenyl)thieno[3,2-c]pyridazin-6-yl)pyrrolidin-1-yl)pyrimidin-4-yl)isoxazol-5-yl)-3-methylbutanoyl)-N-((S)-1-(4-(4-methylthiazol-5-yl)phenyl)ethyl)pyrrolidine-2-carboxamide]	A (“A” indicates maximum degradation ≥75%)
< 10	< 50		Cc1nc(N2CC[C@H](c3sc4nnc(-c5ccccc5O)cc4c3C)C2)ccc1-c1cc([C@H](C(=O)N2C[C@H](O)C[C@H]2C(=O)N[C@@H](C)c2ccc(-c3scnc3C)cc2)C(C)C)on1 [Compound 95, (2S,4R)-4-hydroxy-1-((R)-2-(3-(6-((S)-3-(3-(2-hydroxyphenyl)-5-methylthieno[2,3-c]pyridazin-6-yl)pyrrolidin-1-yl)-2-methylpyridin-3-yl)isoxazol-5-yl)-3-methylbutanoyl)-N-((S)-1-(4-(4-methylthiazol-5-yl)phenyl)ethyl)pyrrolidine-2-carboxamide]	A (“A” indicates maximum degradation ≥75%)
< 10	< 50	> 1000	Cc1cc(-c2cc([C@H](C(=O)N3C[C@H](O)C[C@H]3C(=O)N[C@@H](C)c3ccc(-c4scnc4C)cc3)C(C)C)on2)cnc1N1CCC(c2sc3nnc(-c4ccccc4O)cc3c2C)CC1 [Compound 43, (2S,4R)-4-hydroxy-1-((R)-2-(3-(6-(4-(3-(2-hydroxyphenyl)-5-methylthieno[2,3-c]pyridazin-6-yl)piperidin-1-yl)-5-methylpyridin-3-yl)isoxazol-5-yl)-3-methylbutanoyl)-N-((S)-1-(4-(4-methylthiazol-5-yl)phenyl)ethyl)pyrrolidine-2-carboxamide]	A (“A” indicates maximum degradation ≥75%)
> 10	> 75	> 10	Cc1ncsc1-c1ccc([C@H](C)NC(=O)[C@@H]2C[C@@H](O)CN2C(=O)[C@@H](c2cc(-c3ccnc(N4CCC(c5sc6nnc(-c7ccccc7O)cc6c5C)CC4)c3)no2)C(C)C)cc1 [Compound 10, (2S,4R)-4-hydroxy-1-((R)-2-(3-(2-(4-(3-(2-hydroxyphenyl)-5-methylthieno[2,3-c]pyridazin-6-yl)piperidin-1-yl)pyridin-4-yl)isoxazol-5-yl)-3-methylbutanoyl)-N-((S)-1-(4-(4-methylthiazol-5-yl)phenyl)ethyl)pyrrolidine-2-carboxamide]	A (“A” indicates maximum degradation ≥75%)
< 10	< 50	> 1000	Cc1ncsc1-c1ccc([C@H](C)NC(=O)[C@@H]2C[C@@H](O)CN2C(=O)[C@@H](c2cc(-c3cnc(N4CC5(CC(c6sc7nnc(-c8ccccc8O)cc7c6C)C5)C4)nc3)no2)C(C)C)cc1 [Compound 46, (2S,4R)-4-hydroxy-1-((R)-2-(3-(2-(6-(3-(2-hydroxyphenyl)-5-methylthieno[2,3-c]pyridazin-6-yl)-2-azaspiro[3.3]heptan-2-yl)pyrimidin-5-yl)isoxazol-5-yl)-3-methylbutanoyl)-N-((S)-1-(4-(4-methylthiazol-5-yl)phenyl)ethyl)pyrrolidine-2-carboxamide]	A (“A” indicates maximum degradation ≥75%)
< 10	< 50		Cc1ncsc1-c1ccc([C@H](C)NC(=O)[C@@H]2C[C@@H](O)CN2C(=O)[C@@H](c2cc(-c3cnc(N4CC[C@H](c5sc6nnc(-c7ccccc7O)cc6c5C5CC5)C4)nc3)no2)C(C)C)cc1 [Compound 76, (2S,4R)-1-((R)-2-(3-(2-((S)-3-(5-cyclopropyl-3-(2-hydroxyphenyl)thieno[2,3-c]pyridazin-6-yl)pyrrolidin-1-yl)pyrimidin-5-yl)isoxazol-5-yl)-3-methylbutanoyl)-4-hydroxy-N-((S)-1-(4-(4-methylthiazol-5-yl)phenyl)ethyl)pyrrolidine-2-carboxamide]	A (“A” indicates maximum degradation ≥75%)
> 10	< 50	> 1000	Cc1ncsc1-c1ccc([C@H](C)NC(=O)[C@@H]2C[C@@H](O)CN2C(=O)[C@@H](c2cc(-c3ccc(N4CC(c5sc6nnc(-c7ccccc7O)cc6c5C)C4)nn3)no2)C(C)C)cc1 [Compound 50, (2S,4R)-4-hydroxy-1-((R)-2-(3-(6-(3-(3-(2-hydroxyphenyl)-5-methylthieno[2,3-c]pyridazin-6-yl)azetidin-1-yl)pyridazin-3-yl)isoxazol-5-yl)-3-methylbutanoyl)-N-((S)-1-(4-(4-methylthiazol-5-yl)phenyl)ethyl)pyrrolidine-2-carboxamide]	A (“A” indicates maximum degradation ≥75%)
< 10	< 50	> 1000	Cc1ncsc1-c1ccc([C@H](C)NC(=O)[C@@H]2C[C@@H](O)CN2C(=O)[C@@H](c2cc(N3CC4(CC(c5sc6nnc(-c7ccccc7O)cc6c5C)C4)C3)no2)C(C)C)cc1 [Compound 23, (2S,4R)-4-hydroxy-1-((R)-2-(3-(6-(3-(2-hydroxyphenyl)-5-methylthieno[2,3-c]pyridazin-6-yl)-2-azaspiro[3.3]heptan-2-yl)isoxazol-5-yl)-3-methylbutanoyl)-N-((S)-1-(4-(4-methylthiazol-5-yl)phenyl)ethyl)pyrrolidine-2-carboxamide]	A (“A” indicates maximum degradation ≥75%)
> 10	< 50		Cc1ncsc1-c1ccc([C@H](C)NC(=O)[C@@H]2C[C@@H](O)CN2C(=O)[C@@H](c2cc(-c3cnc(N4CC[C@@H](c5sc6nnc(-c7ccccc7O)cc6c5C5CC5)C4)nc3)no2)C(C)C)cc1 [Compound 75, (2S,4R)-1-((R)-2-(3-(2-((R)-3-(5-cyclopropyl-3-(2-hydroxyphenyl)thieno [2,3-c]pyridazin-6-yl)pyrrolidin-1-yl)pyrimidin-5-yl)isoxazol-5-yl)-3-methylbutanoyl)-4-hydroxy-N-((S)-1-(4-(4-methylthiazol-5-yl)phenyl)ethyl)pyrrolidine-2-carboxamide]	B (“B” indicates maximum degradation ≥50%)
> 1000	< 50	> 1000	Cc1ncsc1-c1ccc([C@H](C)NC(=O)[C@@H]2C[C@@H](O)CN2C(=O)[C@@H](c2cc(-c3ccnc(N4CC[C@@H](c5sc6nnc(-c7ccccc7O)cc6c5C)C4)n3)no2)C(C)C)cc1 [Compound 7, (2S,4R)-4-hydroxy-1-((R)-2-(3-(2-((R)-3-(3-(2-hydroxyphenyl)-5-methylthieno[2,3-c]pyridazin-6-yl)pyrrolidin-1-yl)pyrimidin-4-yl)isoxazol-5-yl)-3-methylbutanoyl)-N-((S)-1-(4-(4-methylthiazol-5-yl)phenyl)ethyl)pyrrolidine-2-carboxamide]	C (“C” indicates maximum degradation <50%)
